Source: patent US20240131013A1, “TETRAHYDRO-1H-PYRIDO[3,4-b]INDOLE ANTI-ESTROGENIC DRUGS” (Olema Pharmaceuticals, Inc., priority 2015, published 2024)
“Also recorded” adds a separate entry of the source.

Tests used:
[1] = test system: estrogen-responsive reporter gene, ERE-tk109-Luc; experiment: Inhibition of E2-induced transcription, ERE-tk109-Luc reporter in MCF-7 cells; assay type: cell-based; conditions: Homo sapiens, MCF7; read-out: Inhibition of E2-induced transcription in breast cells, IC50
Method: Representative compounds were tested for their inhibitory activity of estrogen according to the assay methods described in Hodges-Gallagher, L., Valentine, C. V., El Bader, S. and Kushner, P. J. (2007) “Histone Deacetylase Inhibitors Enhance the Efficacy of Hormonal Therapy Agents on Breast Cancer Cells and Blocks Anti-estrogen-Driven Uterine Cell Proliferation” Breast Cancer Res Treat, November; 105(3):297-309. Specifically, MCF-7 cells were transiently transfected with an estrogen-responsive reporter gene, ERE-tk109-Luc. Transfected cells were treated with antiestrogens in hormone-depleted medium in the presence of 100 pM 17β-estradiol (E2) for 22 hours. Luciferase activity was normalized to activity of E2 alone and IC50's were calculated using the least squares fit method.
A representative result for inhibition of E2-induced transcription in breast cells (nM) is shown below in tabular form: […]

[2] = test system: AP activity in ECC-1 cells; experiment: Alkaline phosphatase (AP) assay in ECC-1 uterine cells, agonist mode; assay type: cell-based, human; conditions: for AP Agonist Act. (% of E2): ECC-1 cells, without E2; for Induction of Alkaline Phosphatase (AP) % E2: mean of n experiments; for Induction of AP activity in uterine cells (% E2): representative result
Method: Method for performing the alkaline phosphatase (AP) assay. ECC-1 cells were trypsinized and resuspended in hormone-depleted media and plated at a density of 15k cells per well into a 96-well plate for at least 4 hours. Cells were treated with antiestrogens for 3 days and plates were subsequently frozen at −80° C. Thawed plates were incubated with a chromogenic substrate of AP, p-nitrophenyl phosphate (Thermo Fisher Scientific), for 40 minutes at 40° C. and absorbances were read at 405 nm. AP activity was normalized to the activity of E2 alone. […] A representative result for induction of AP activity in uterine cells (% E2) is shown below in tabular form: […]

[3] = test system: AP activity in ECC-1 cells; experiment: Alkaline phosphatase (AP) assay in ECC-1 uterine cells co-treated with 500 pM E2, antagonist mode; assay type: cell-based, human; conditions: for AP Antagonist Act. (% of E2): ECC-1 cells, co-treated with 500 pM E2
Method: Method for performing the alkaline phosphatase (AP) assay. ECC-1 cells were trypsinized and resuspended in hormone-depleted media and plated at a density of 15k cells per well into a 96-well plate for at least 4 hours. Cells were treated with antiestrogens for 3 days and plates were subsequently frozen at −80° C. […] AP activity was normalized to the activity of E2 alone.

ERα [4] = biological target: T1, ERα (Homo sapiens (Human), UniProt P03372); experiment: ER degradation, immunoblot of MCF-7 protein extracts; assay type: cell-based; conditions: 100 nM, 24 hours
Method: MCF-7 cells were treated with 100 nM anti-estrogen for 24 hours in serum-free medium and protein extracts immunoblotted with D12 antibody to ERα and β-actin (Santa Cruz Biotechnology). The numbers below the blots represent the optical density of ERα bands of each treatment relative to percent vehicle after normalization to β-actin.
Target sequence in this assay (P03372 whole entry): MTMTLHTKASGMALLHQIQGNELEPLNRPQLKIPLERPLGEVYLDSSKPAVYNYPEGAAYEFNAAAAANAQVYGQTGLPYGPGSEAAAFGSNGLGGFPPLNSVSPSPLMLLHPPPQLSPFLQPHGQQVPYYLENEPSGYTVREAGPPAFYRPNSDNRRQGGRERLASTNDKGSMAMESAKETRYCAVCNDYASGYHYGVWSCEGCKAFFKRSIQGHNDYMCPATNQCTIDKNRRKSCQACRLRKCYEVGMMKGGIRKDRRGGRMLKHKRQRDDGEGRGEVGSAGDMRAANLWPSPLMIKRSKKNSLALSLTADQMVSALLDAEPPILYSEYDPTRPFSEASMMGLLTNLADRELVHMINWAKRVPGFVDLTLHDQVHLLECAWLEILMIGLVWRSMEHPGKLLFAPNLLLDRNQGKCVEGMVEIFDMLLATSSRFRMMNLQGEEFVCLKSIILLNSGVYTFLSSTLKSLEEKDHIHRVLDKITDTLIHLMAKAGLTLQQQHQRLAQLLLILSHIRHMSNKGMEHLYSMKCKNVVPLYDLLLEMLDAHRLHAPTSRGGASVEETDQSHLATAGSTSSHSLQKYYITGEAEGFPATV

ERα [5] = biological target: T1, ERα; experiment: ERα levels in breast cells, in-cell western (Colorimetric In-Cell ELISA); assay type: cell-based
Method: IC50's were calculated using the least squares fit method. Error bars represent S.E.M from triplicate wells.
Target sequence in this assay (P03372 whole entry): as above

ERα [6] = biological target: T1, ERα; experiment: ERα binding, LanthaScreen Competitive Binding Assay (TR-FRET)
From the text: Compounds were screened for their ability to displace a fluorescent labelled tracer ERα ligand via time resolved fluorescent energy transfer using the LanthaScreen Competitive Binding Assay screening service (Thermo Fisher Scientific).
Target sequence in this assay (P03372 whole entry, looked up): as the sequence (P03372 whole entry) above

[7] = test system: Clone 18 cells (MCF7/Her2/neu); experiment: Xenograft study, MCF7/Her2/neu tumors in mice; assay type: in vivo, athymic ovariectomized nu/nu mice; conditions: oral gavage, doses as low as 10 mg/kg
Method: Xenograft studies were conducted by the Preclinical Therapeutics Core at the University of California, San Francisco in accordance with the Institutional Animal Care and Use Committee (IACUC) guidelines. Clone 18 cells (MCF7/Her2/neu) cells were grown in culture and implanted into athymic ovariectomized nu/nu mice. To stimulate tumor growth 0.36 mg estradiol 90 day release pellets (Innovative Research, Saratoga, FL) were implanted along with cells. When tumors reached 150-250 cubic millimeters the pellets were exchanged for 0.18 mg estradiol 90 day release pellets and divided into groups of six mice per treatment group. One of those groups received vehicle only (0.5% CMC+8% DMSO), and Compound B and Compound C each had 2 groups treated with either 10 or 100 mg/kg compound. Compounds were administered by oral gavage twice daily, except once daily on weekends/holidays for the first 21 days, and once daily after day 21. Tumors and bodyweight were measured twice weekly.

[8] = Pharmacokinetics in mice after oral gavage; assay type: in vivo, BALB/c female mice; conditions: 5 mg/kg oral gavage; for Oral drug exposure, free fraction taken into account: mice, 0-24 hours
Method: Pharmacokinetics were studied in BALB/c female mice. For each arm, three BALB/c female mice were given 5 mg/kg of compound in 0.5% CMC formulation by oral gavage. Concentration of compounds in mouse plasma and their metabolites were analyzed at each time point using LC-MS/MS. The concentrations were adjusted for the free fraction of drug in mouse plasma (method below). Area under the curve was calculated using the trapezoidal rule for 0-24 hours.

PR = conditions: De Savi; cited from earlier work
[9] = 100 nM dose, mean of n experiments

Compound: C[C@@H]1Cc2c([nH]c3ccccc23)[C@@H](c2c(F)cc(/C=C/C(=O)O)cc2F)N1CC(C)(C)F [AZD9496, (E)-3-(3,5-Difluoro-4-((1R,3R)-2-(2-fluoro-2-methylpropyl)-3-methyl-2,3,4,9-tetrahydro-1H-pyrido[3,4-b]indol-1-yl)phenyl)acrylic Acid]
- IC50 [1]: 1.3 nM
- Estrogen-like activity as AP agonist and antagonist in comparison to Compounds A-D ([2]; AP agonist and antagonist modes): approximately 10 fold
- AP Agonist Act. (% of E2) [2]: 35 % of E2
- Induction of Alkaline Phosphatase (AP) % E2 [2]: 39 % E2
- Induction of AP activity in uterine cells (% E2) [2]: 35 % E2

Compound: CCCN1CC(Oc2ccc([C@@H]3c4[nH]c5ccccc5c4C[C@@H](C)N3CC(C)(C)F)cc2F)C1 [Compound A, (1R,3R)-2-(2-fluoro-2-methylpropyl)-1-(3-fluoro-4-((1-propylazetidin-3-yl)oxy)phenyl)-3-methyl-2,3,4,9-tetrahydro-1H-pyrido[3,4-b]indole]
- AP Agonist Act. (% of E2) [2]: 3.96 % of E2
- Induction of AP activity in uterine cells (% E2) [2]: 3.96 % E2
- Residual AP activity with 100 nM compound plus E2 (% of E2 alone) ([3]; 100 nM antiestrogen, 500 pM E2): 3.15 % E2
- AP Antagonist Act. (% of E2) [3]: 3.15 % of E2

Compound: CCCN1CC(Oc2ccc([C@@H]3c4[nH]c5ccccc5c4C[C@@H](C)N3CC(C)(C)F)cc2)C1 [Compound B, (1R,3R)-2-(2-fluoro-2-methylpropyl)-3-methyl-1-(4-((1-propylazetidin-3-yl)oxy)phenyl)-2,3,4,9-tetrahydro-1H-pyrido[3,4-b]indole]
- AP Agonist Act. (% of E2) [2]: 2.18 % of E2
- AP activity of ECC-1 cells normalized to the effect of 500 pM 17β-estradiol ([2]; compound alone): 2.18%
- Induction of Alkaline Phosphatase (AP) % E2 [2]: 1.78 % E2
- Induction of AP activity in uterine cells (% E2) [2]: 2.18 % E2
- Residual AP activity with 100 nM compound plus E2 (% of E2 alone) ([3]; 100 nM antiestrogen, 500 pM E2): 1.96 % E2
- Residual AP activity with 100 nM compound plus E2 (% of E2 alone) [3, 9]: 1.56 % E2
- AP Antagonist Act. (% of E2) [3]: 1.96 % of E2
- AP activity of ECC-1 cells co-treated with 500 pM 17β-estradiol, % of the activity 17β-estradiol would produce ([3]; co-treated with 500 pM 17β-estradiol): 1.96%
- Estrogen receptor degradation in MCF-7 cells (immunoblot, FIG. 7) (ERα [4]): degrades the estrogen receptor
- Relative change in ERα levels in breast cells % Veh (ERα [5]): 45 % Veh
- Relative change in ERα levels in breast cells pIC50 (ERα [5]): 8.57
- Estrogen receptor degradation in MCF-7 cells (in-cell western, FIG. 2) (ERα [5]; 24 hours): degrades the estrogen receptor
- ERα binding activity in words (ERα [6]): comparable activity to fulvestrant, Goodacre Compound 102, and Goodacre Compound 107
- ERα binding pIC50 (ERα [6]): 8.57
- Effect on tumor size in xenografted mice [7]: shrinks MCF-7 (HER2/neu) tumors; also recorded: outstandingly potent in shrinking human breast cancer xenografts
- Oral bioavailability and half-life ([8]; BALB/c mice): high oral bioavailability and half-life
- Oral drug exposure, free fraction taken into account [8]: better 24 hour drug exposure compared to other compounds; also recorded: substantially higher oral drug exposure

Compound: C[C@@H]1Cc2c([nH]c3ccccc23)[C@@H](c2ccc(OCCN3CC(CF)C3)cc2)N1CC(C)(C)F [Compound C, (1R,3R)-2-(2-fluoro-2-methylpropyl)-1-(4-(2-(3-(fluoromethyl)azetidin-1-yl)ethoxy)phenyl)-3-methyl-2,3,4,9-tetrahydro-1H-pyrido[3,4-b]indole]
- AP Agonist Act. (% of E2) [2]: 3.1 % of E2
- Induction of Alkaline Phosphatase (AP) % E2 [2]: 1.71 % E2
- Induction of AP activity in uterine cells (% E2) [2]: 3.1 % E2
- Residual AP activity with 100 nM compound plus E2 (% of E2 alone) ([3]; 100 nM antiestrogen, 500 pM E2): 2.5 % E2
- Residual AP activity with 100 nM compound plus E2 (% of E2 alone) [3, 9]: 1.76 % E2
- AP Antagonist Act. (% of E2) [3]: 2.5 % of E2
- Relative change in ERα levels in breast cells % Veh (ERα [5]): 42 % Veh
- Relative change in ERα levels in breast cells pIC50 (ERα [5]): 8.87
- ERα binding activity in words (ERα [6]): comparable activity to fulvestrant, Goodacre Compound 102, and Goodacre Compound 107
- Effect on tumor size in xenografted mice [7]: outstandingly potent in shrinking human breast cancer xenografts
- Oral drug exposure, free fraction taken into account [8]: substantially higher oral drug exposure

Compound: C[C@@H]1Cc2c([nH]c3ccccc23)[C@@H](c2c(F)cc(OCCN3CC(CF)C3)cc2F)N1CC(C)(C)F [Compound D, (1R,3R)-1-(2,6-difluoro-4-(2-(3-(fluoromethyl)azetidin-1-yl)ethoxy)phenyl)-2-(2-fluoro-2-methylpropyl)-3-methyl-2,3,4,9-tetrahydro-1H-pyrido[3,4-b]indole, reference compound]
- AP Agonist Act. (% of E2) [2]: 3.37 % of E2
- Induction of Alkaline Phosphatase (AP) % E2 [2]: 4.45 % E2
- Induction of AP activity in uterine cells (% E2) [2]: 3.37 % E2
- Residual AP activity with 100 nM compound plus E2 (% of E2 alone) ([3]; 100 nM antiestrogen, 500 pM E2): 4.07 % E2
- Residual AP activity with 100 nM compound plus E2 (% of E2 alone) [3, 9]: 3.98 % E2
- AP Antagonist Act. (% of E2) [3]: 4.07 % of E2

Compound: C[C@]12CC[C@@H]3c4ccc(O)cc4C[C@@H](CCCCCCCCC[S+]([O-])CCCC(F)(F)C(F)(F)F)[C@H]3[C@@H]1CC[C@@H]2O (stereo partly shown) [Fulvestrant, reference compound]
- Induction of Alkaline Phosphatase (AP) % E2 [2]: −0.04 % E2
- Induction of AP activity in uterine cells (% E2) [2]: −0.13 % E2
- Residual AP activity with 100 nM compound plus E2 (% of E2 alone) ([3]; 100 nM antiestrogen, 500 pM E2): −2.2 % E2
- Residual AP activity with 100 nM compound plus E2 (% of E2 alone) [3, 9]: −0.09 % E2

Compound: CCCN1CC(Oc2cc(F)c([C@@H]3c4[nH]c5ccccc5c4C[C@@H](C)N3CC(C)(C)F)c(F)c2)C1 [Goodacre Compound 107, (1R,3R)-1-(2,6-difluoro-4-((1-propylazetidin-3-yl)oxy)phenyl)-2-(2-fluoro-2-methylpropyl)-3-methyl-2,3,4,9-tetrahydro-1H-pyrido[3,4-b]indole, reference compound]
- Induction of Alkaline Phosphatase (AP) % E2 [2]: 0.00 % E2
- Residual AP activity with 100 nM compound plus E2 (% of E2 alone) [3, 9]: 1.03 % E2

Compound: Oc1ccc2c(c1)CC[C@H](c1ccccc1)[C@@H]2c1ccc(OCCN2CCCC2)cc1 [Lasofoxifene, reference compound]
- Induction of AP activity in uterine cells (% E2) [2]: 86 % E2
- Residual AP activity with 100 nM compound plus E2 (% of E2 alone) ([3]; 100 nM antiestrogen, 500 pM E2): 83 % E2

Compound: C[C@@H]1Cc2c([nH]c3ccccc23)[C@@H](c2ccc(/C=C/C(=O)O)cc2)N1CC(C)(C)F [WO 2014/191726 Example 2]
- PR agonist pIC50 (PR): <5.5
